Measured values published in patent publication US20080063636A1, “Variant Amyloid Protein” (priority 2004, published 2008).

System: human cultured cell HEK cells
Assay: Quantification of amyloid protein secreted by HEK cells expressing APP cDNA
Assay type: cell-based
Set-up: Aβ42: unit not given here
Conditions: secreted by HEK cells expressing the APP cDNA, 2 days, culture supernatant
Text: Since the variant APP gene cDNA obtained in Example 1 had the variant inside the amyloid protein, a β secretase or γ secretase cleavage site was examined. Then, an expression vector of the variant APP gene cDNA was introduced into human cultured cell HEK cells known to express APP as well as to produce and secrete amyloid protein. The expression was left to occur for 2 days to obtain a culture supernatant, and an immunoprecipitated fraction obtained by using an anti-amyloid protein antibody was subjected to a mass analysis with the use of AXIMA-CFR manufactured by Shimadzu Corporation.
Note that a vacant expression vector dissolved into a normal saline was used as the control in Table 1. Also, Aβ42 represents Aβ1-42 and Aβ1-43 or Aβ1-42 (ΔE) and Aβ1-43 (ΔE), and Aβ40 represents Aβ1-40 or Aβ1-40 (ΔE).

Wildtype APP: wildtype amyloid precursor protein expressed in human cultured HEK cells
Aβ40 (Aβ40 = Aβ1-40 or Aβ1-40 (ΔE)): 200 pg/mL | Aβ42 (Aβ42 = Aβ1-42 and Aβ1-43 or their ΔE forms): 26
